Structures are written as SMILES. Where two headings read alike, the source gives them in different places.

One molecule from patent US20150322051A1, “Macrocyclic picolinamides as fungicides” (Dow AgroSciences LLC, priority 2014, published 2015) can be followed below.

What all share (assay type): in vivo
Experiment [1] deals with Blumeria graminis f. sp. hordei; synonym: Erysiphe graminis f. sp. hordei (ERYSGH). Briefly: Barley powdery mildew (ERYSGH) whole-plant fungicidal test. Particulars: 1 Day Protectant. The procedure:
(§1) All fungicides were evaluated using the aforementioned method for their activity vs. all target diseases, unless stated otherwise. Wheat leaf blotch and brown rust activity were also evaluated using track spray applications, in which case the fungicides were formulated as EC formulations, containing 0.1% Trycol 5941 in the spray solutions. Wheat plants (variety Yuma) were grown from seed in a greenhouse in 50% mineral soil/50% soil-less Metro mix until the first leaf was fully emerged, with 7-10 seedlings per pot. These plants were inoculated with an aqueous spore suspension of Septoria tritici either prior to or after fungicide treatments. After inoculation the plants were kept in 100% relative humidity (one day in a dark dew chamber followed by two to three days in a lighted dew chamber at 20° C.) to permit spores to germinate and infect the leaf. The plants were then transferred to a greenhouse set at 20° C. for disease to develop. When disease symptoms were fully expressed on the 1st leaves of untreated plants, infection levels were assessed on a scale of 0 to 100 percent disease severity. Percent disease control was calculated using the ratio of disease severity on treated plants relative to untreated plants. Barley seedlings (variety Harrington) were propagated in soil-less Metro mix, with each pot having 8 to 12 plants, and used in the test when first leaf was fully emerged. […]

Experiment [2] deals with Alternaria solani (ALTESO). Briefly: Tomato early blight (ALTESO) whole-plant fungicidal test. The following applies: 1 Day Protectant. How it is done: as §1, with “Tomato plants” for “Barley seedlings”, “Outdoor Girl)” for “Harrington)”, “one plant,” for “8 to 12 plants,”, “used” for “used in the test”, “12 to 14 days old.” for “first leaf was fully emerged.”
Experiment [3] deals with Puccinia triticina; synonym: Puccinia recondita f. sp. tritici (PUCCRT). Briefly: Wheat brown rust (PUCCRT) whole-plant fungicidal test. The following applies: topical, low volume (track spray) application, 121.5 g/H.

As for `CCCC[C@@H]1[C@@H](Cc2ccc(C(F)(F)F)cc2)CCC[C@H](NC(=O)c2nccc(OC)c2OCOC(C)=O)C(=O)O[C@H]1C` [Compound 3], the “Disease Control at 100 ppm ERYSGH 1DP” value in experiment [1] is given as “A (>70)”. Also, the “Disease Control at 100 ppm ALTESO 1DP” value in experiment [2] is on record as “A (>70)”. In addition, the pest or weed control at 121.5 g/ha in experiment [3] (24 h, 1 Day Protectant, read-out: Low Volume activity at 121.5 g/H PUCCRT 1DP (% disease control rating)) is more than 70%; in experiment [3] (72 h, 3 Day Curative, read-out: Low Volume activity at 121.5 g/H PUCCRT 3DC (% disease control rating)), less than 70%.
